Data as given in publication PMC10408569, “Recruitment of hexahydroquinoline as anticancer scaffold targeting inhibition of wild and mutants EGFR (EGFR^WT, EGFR^T790M, and EGFR^L858R)” (Journal of Enzyme Inhibition and Medicinal Chemistry, 2023).

Legend:
UO-31 = assay: NCI-60 anticancer screening (SRB); assay type: cell-based; details: Homo sapiens; UO-31, renal cancer; one dose 10 μM; read-out: Growth Inhibition Percentage (GI %)
NCI-H460 = assay: NCI-60 anticancer screening (SRB); assay type: cell-based; details: Homo sapiens; NCI-H460, NSC lung cancer; one dose 10 μM; read-out: Growth Inhibition Percentage (GI %)
HOP-62 = assay: NCI-60 anticancer screening (SRB); assay type: cell-based; details: Homo sapiens; HOP-62, NSC lung cancer; one dose 10 μM; read-out: Growth Inhibition Percentage (GI %)
M14 = assay: NCI-60 anticancer screening (SRB); assay type: cell-based; details: Homo sapiens; M14, melanoma; one dose 10 μM; read-out: Growth Inhibition Percentage (GI %)
HCC-2998 = assay: NCI-60 anticancer screening (SRB); assay type: cell-based; details: Homo sapiens; HCC-2998, colon cancer; one dose 10 μM; read-out: Growth Inhibition Percentage (GI %)
CAKI-1 = assay: NCI-60 anticancer screening (SRB); assay type: cell-based; details: Homo sapiens; CAKI-1, renal cancer; one dose 10 μM; read-out: Growth Inhibition Percentage (GI %)
HS 578T = assay: NCI-60 anticancer screening (SRB); assay type: cell-based; details: Homo sapiens; HS 578T, breast cancer; one dose 10 μM; read-out: Growth Inhibition Percentage (GI %)
SW-620 = assay: NCI-60 anticancer screening (SRB); assay type: cell-based; details: Homo sapiens; SW-620, colon cancer; one dose 10 μM; read-out: Growth Inhibition Percentage (GI %)
SK-MEL-2 = assay: NCI-60 anticancer screening (SRB); assay type: cell-based; details: Homo sapiens; SK-MEL-2, melanoma; one dose 10 μM; read-out: Growth Inhibition Percentage (GI %)
NCI-H522 = assay: NCI-60 anticancer screening (SRB); assay type: cell-based; details: Homo sapiens; NCI-H522, NSC lung cancer; one dose 10 μM; read-out: Growth Inhibition Percentage (GI %)
BT-549 = assay: NCI-60 anticancer screening (SRB); assay type: cell-based; details: Homo sapiens; BT-549, breast cancer; one dose 10 μM; read-out: Growth Inhibition Percentage (GI %)
A498 = assay: NCI-60 anticancer screening (SRB); assay type: cell-based; details: Homo sapiens; A498, renal cancer; one dose 10 μM; read-out: Growth Inhibition Percentage (GI %)
TK-10 = assay: NCI-60 anticancer screening (SRB); assay type: cell-based; details: Homo sapiens; TK-10, renal cancer; one dose 10 μM; read-out: Growth Inhibition Percentage (GI %)
NCI-H322M = assay: NCI-60 anticancer screening (SRB); assay type: cell-based; details: Homo sapiens, NSC lung cancer, one dose 10 μM, read-out: Growth Inhibition Percentage (GI %)
COLO 205 = assay: NCI-60 anticancer screening (SRB); assay type: cell-based; details: Homo sapiens; COLO 205, colon cancer; one dose 10 μM; read-out: Growth Inhibition Percentage (GI %)
SK-MEL-5 = assay: NCI-60 anticancer screening (SRB); assay type: cell-based; details: Homo sapiens; SK-MEL-5, melanoma; one dose 10 μM; read-out: Growth Inhibition Percentage (GI %)
RXF 393 = assay: NCI-60 anticancer screening (SRB); assay type: cell-based; details: Homo sapiens; RXF 393, renal cancer; one dose 10 μM; read-out: Growth Inhibition Percentage (GI %)
KM 12 = assay: NCI-60 anticancer screening (SRB); assay type: cell-based; details: Homo sapiens, KM12; KM 12, colon cancer; one dose 10 μM; read-out: Growth Inhibition Percentage (GI %)
T-47D = assay: NCI-60 anticancer screening (SRB); assay type: cell-based; details: Homo sapiens, T47D, breast cancer, one dose 10 μM, read-out: Growth Inhibition Percentage (GI %)
HL-60(TB) = assay: NCI-60 anticancer screening (SRB); assay type: cell-based; details: Homo sapiens, leukemia, one dose 10 μM, read-out: Growth Inhibition Percentage (GI %)
NCI/ADR-RES = assay: NCI-60 anticancer screening (SRB); assay type: cell-based; details: Homo sapiens, ovarian cancer, one dose 10 μM, read-out: Growth Inhibition Percentage (GI %)
MDA-MB-231 = assay: NCI-60 anticancer screening (SRB); assay type: cell-based; details: Homo sapiens; MDA-MB-231, breast cancer; one dose 10 μM; read-out: Growth Inhibition Percentage (GI %)
786-0 = assay: NCI-60 anticancer screening (SRB); assay type: cell-based; details: Homo sapiens; 786-0, renal cancer; one dose 10 μM; read-out: Growth Inhibition Percentage (GI %)
HT29 = assay: NCI-60 anticancer screening (SRB); assay type: cell-based; details: Homo sapiens, HT-29; HT29, colon cancer; one dose 10 μM; read-out: Growth Inhibition Percentage (GI %)
OVCAR-3 = assay: NCI-60 anticancer screening (SRB); assay type: cell-based; details: Homo sapiens; OVCAR-3, ovarian cancer; one dose 10 μM; read-out: Growth Inhibition Percentage (GI %)
OVCAR-4 = assay: NCI-60 anticancer screening (SRB); assay type: cell-based; details: Homo sapiens; OVCAR-4, ovarian cancer; one dose 10 μM; read-out: Growth Inhibition Percentage (GI %)
SN 12C = assay: NCI-60 anticancer screening (SRB); assay type: cell-based; details: Homo sapiens, SN12C; SN 12C, renal cancer; one dose 10 μM; read-out: Growth Inhibition Percentage (GI %)
MCF7 = assay: NCI-60 anticancer screening (SRB); assay type: cell-based; details: Homo sapiens; MCF7, breast cancer; one dose 10 μM; read-out: Growth Inhibition Percentage (GI %)
UACC-62 = assay: NCI-60 anticancer screening (SRB); assay type: cell-based; details: Homo sapiens; UACC-62, melanoma; one dose 10 μM; read-out: Growth Inhibition Percentage (GI %)
MOLT-4 = assay: NCI-60 anticancer screening (SRB); assay type: cell-based; details: Homo sapiens; MOLT-4, leukemia; one dose 10 μM; read-out: Growth Inhibition Percentage (GI %)
LOX IMVI = assay: NCI-60 anticancer screening (SRB); assay type: cell-based; details: Homo sapiens, melanoma, one dose 10 μM, read-out: Growth Inhibition Percentage (GI %)

| SMILES | inhibition at 10 µM (UO-31) | inhibition at 10 µM (NCI-H460) | inhibition at 10 µM (HOP-62) | inhibition at 10 µM (M14) | inhibition at 10 µM (HCC-2998) | inhibition at 10 µM (CAKI-1) | inhibition at 10 µM (HS 578T) | inhibition at 10 µM (SW-620) | inhibition at 10 µM (SK-MEL-2) | melting point | inhibition at 10 µM (NCI-H522) | inhibition at 10 µM (BT-549) | inhibition at 10 µM (A498) | inhibition at 10 µM (TK-10) | inhibition at 10 µM (NCI-H322M) | inhibition at 10 µM (COLO 205) | inhibition at 10 µM (SK-MEL-5) | inhibition at 10 µM (RXF 393) | inhibition at 10 µM (KM 12) | inhibition at 10 µM (T-47D) | also measured |
| --- | --- | --- | --- | --- | --- | --- | --- | --- | --- | --- | --- | --- | --- | --- | --- | --- | --- | --- | --- | --- | --- |
| CCOC(=O)C1=C(N)N(c2ccc(C)cc2)C2=C(C(=O)CC(C)(C)C2)C1c1ccccc1Cl (racemic) [6b, (±)-Ethyl 2-amino-4–(2-chlorophenyl)-7,7-dimethyl-1–(4-methylphenyl)-5-oxo-1,4,5,6,7,8-hexahydroquinoline-3-carboxylate] | 19% | 20% | < 10% | < 10% | < 10% | 31% | < 10% | 19% | < 10% | 240 to 242 °C | 17% | 11% | < 10% | < 10% | < 10% | 19% | 17% | < 10% | < 10% | 21% | inhibition at 10 µM (HL-60(TB)): < 10%; inhibition at 10 µM (NCI/ADR-RES): < 10%; inhibition at 10 µM (MDA-MB-231): < 10%; inhibition at 10 µM (786-0): < 10%; inhibition at 10 µM (HT29): 30%; inhibition at 10 µM (OVCAR-3): 17%; inhibition at 10 µM (OVCAR-4): < 10%; inhibition at 10 µM (SN 12C): < 10%; inhibition at 10 µM (MCF7): 32%; inhibition at 10 µM (UACC-62): 23%; inhibition at 10 µM (MOLT-4): < 10%; inhibition at 10 µM (LOX IMVI): < 10% |
| CCOC(=O)C1=C(N)N(c2ccccc2)C2=C(C(=O)CC(C)(C)C2)C1c1ccccc1OC (racemic) [6g, (±)-Ethyl 2-amino-4–(2-methoxyphenyl)-7,7-dimethyl-5-oxo-1-phenyl-1,4,5,6,7,8-hexahydroquinoline-3-carboxylate] | 26% | < 10% | < 10% | < 10% | < 10% | < 10% | < 10% | < 10% | < 10% | 243 to 245 °C | < 10% | < 10% | < 10% | < 10% | < 10% | < 10% | < 10% | < 10% | < 10% | < 10% | inhibition at 10 µM (HL-60(TB)): < 10%; inhibition at 10 µM (NCI/ADR-RES): < 10%; inhibition at 10 µM (MDA-MB-231): < 10%; inhibition at 10 µM (786-0): < 10%; inhibition at 10 µM (HT29): < 10%; inhibition at 10 µM (OVCAR-3): < 10%; inhibition at 10 µM (OVCAR-4): < 10%; inhibition at 10 µM (SN 12C): < 10%; inhibition at 10 µM (MCF7): < 10%; inhibition at 10 µM (UACC-62): < 10%; inhibition at 10 µM (MOLT-4): < 10%; inhibition at 10 µM (LOX IMVI): < 10% |
| CCOC(=O)C1=C(N)N(c2ccc(C)cc2)C2=C(C(=O)CC(C)(C)C2)C1c1ccc(Cl)cc1 (racemic) [8d, (±)-Ethyl 2-amino-4–(4-chlorophenyl)-7,7-dimethyl-1–(4-methylphenyl)-5-oxo-1,4,5,6,7,8-hexahydroquinoline-3-carboxylate] | 16% | 21% | < 10% | < 10% | < 10% | 30% | < 10% | 20% | < 10% | 205 to 207 °C | 15% | < 10% | < 10% | < 10% | < 10% | 23% | 16% | < 10% | < 10% | 16% | inhibition at 10 µM (HL-60(TB)): 21%; inhibition at 10 µM (NCI/ADR-RES): < 10%; inhibition at 10 µM (MDA-MB-231): < 10%; inhibition at 10 µM (786-0): < 10%; inhibition at 10 µM (HT29): 33%; inhibition at 10 µM (OVCAR-3): 16%; inhibition at 10 µM (OVCAR-4): < 10%; inhibition at 10 µM (SN 12C): < 10%; inhibition at 10 µM (MCF7): 35%; inhibition at 10 µM (UACC-62): 24%; inhibition at 10 µM (MOLT-4): < 10%; inhibition at 10 µM (LOX IMVI): < 10% |
| CCOC(=O)C1=C(N)N(c2ccccc2)C2=C(C(=O)CC(C)(C)C2)C1c1ccc(F)cc1 (racemic) [8a, (±)-Ethyl 2-amino-4–(4-fluorophenyl)-7,7-dimethyl-5-oxo-1-phenyl-1,4,5,6,7,8-hexahydroquinoline-3-carboxylate] | < 10% | < 10% | < 10% | < 10% | < 10% | < 10% | < 10% | < 10% | < 10% | 215 to 217 °C | < 10% | < 10% | < 10% | < 10% | < 10% | < 10% | < 10% | < 10% | < 10% | < 10% | inhibition at 10 µM (HL-60(TB)): < 10%; inhibition at 10 µM (NCI/ADR-RES): < 10%; inhibition at 10 µM (MDA-MB-231): < 10%; inhibition at 10 µM (786-0): < 10%; inhibition at 10 µM (HT29): < 10%; inhibition at 10 µM (OVCAR-3): < 10%; inhibition at 10 µM (OVCAR-4): < 10%; inhibition at 10 µM (SN 12C): < 10%; inhibition at 10 µM (MCF7): < 10%; inhibition at 10 µM (UACC-62): < 10%; inhibition at 10 µM (MOLT-4): < 10%; inhibition at 10 µM (LOX IMVI): < 10% |
